Data from paper PMC8262356, “SLC26A6-selective inhibitor identified in a small-molecule screen blocks fluid absorption in small intestine” (JCI Insight, 2021).

Target: T1, slc26a1 (Mus musculus, UniProt P58735)
T1 construct: expressed in transfected cells; host or cells: 293 T/17 cells, transient transfection with pIRES-HIF vector (IRES-YFP, not fused)
T1 sequence (P58735 1-704): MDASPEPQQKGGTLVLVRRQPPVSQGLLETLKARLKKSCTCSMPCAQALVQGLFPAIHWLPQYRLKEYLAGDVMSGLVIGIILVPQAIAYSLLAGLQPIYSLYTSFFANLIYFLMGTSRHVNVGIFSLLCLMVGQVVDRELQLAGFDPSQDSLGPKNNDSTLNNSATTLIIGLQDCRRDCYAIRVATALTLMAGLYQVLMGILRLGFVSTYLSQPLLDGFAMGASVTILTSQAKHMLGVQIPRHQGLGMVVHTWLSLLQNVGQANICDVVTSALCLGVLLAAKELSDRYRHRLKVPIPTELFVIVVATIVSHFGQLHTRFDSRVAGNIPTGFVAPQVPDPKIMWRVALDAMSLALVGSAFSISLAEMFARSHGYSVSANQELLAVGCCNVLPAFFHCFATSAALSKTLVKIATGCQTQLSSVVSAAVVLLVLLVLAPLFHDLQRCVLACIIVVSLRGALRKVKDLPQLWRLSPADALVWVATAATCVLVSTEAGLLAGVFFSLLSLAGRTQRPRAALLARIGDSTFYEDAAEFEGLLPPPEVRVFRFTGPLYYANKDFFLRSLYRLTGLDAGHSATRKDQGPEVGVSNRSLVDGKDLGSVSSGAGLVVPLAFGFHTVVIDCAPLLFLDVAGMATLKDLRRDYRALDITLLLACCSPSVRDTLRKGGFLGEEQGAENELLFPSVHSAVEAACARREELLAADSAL
Experiment: Selectivity: Cl-/I- exchange in 293T/17 cells transfected with slc26a1 and YFP
Assay type: cell-based
Details: 25 μM, 10 min preincubation
Protocol: YFP-based cellular assays of slc26a3, slc26a4, SLC26A9, and TMEM16A function were performed as described previously ([7]). Slc26a1 and slc26a2 assays were done in transfected HEK 293 cells (see Supplemental Methods for details). Niflumic acid was used as a positive control for SLC26A isoforms ([7]). For TMEM16A, the selective small-molecule inhibitor TMinh-23 was used as a positive control ([28]). The activities of ENaC, CFTR, and CaCC were determined using well-differentiated HBE cells as described previously ([13]). Cl^–/HCO3^– exchange was measured as described previously ([7], [10], [11]). Briefly, cell cytoplasm was labeled with the pH-sensitive fluorescent dye BCECF-AM (Invitrogen), and Cl^–/HCO3^– exchange was measured in response to addition of a gluconate-containing solution to drive exchange of cytoplasmic Cl^– for extracellular HCO3^–, producing cytoplasmic alkalinization.
Slc26a1 and slc26a2 cDNA constructs
The complementar y DNA sequences of slc26a1 and slc26a2 were generated using gB LOCK gene fragments (Int egrat ed DNA technology, Coralville, IA) in the plasmid vector pIRESpuro3 (Takara, San J ose, CA). […]
PBS. […] Background-corrected, area-integrat ed single cell fluorescence was calcul ated for determination of slc26a1 / slc26a2 activit y from the rate of fluorescence quenching. […]

effect on slc26a1 activity: did not affect
Structure (SMILES): Cc1c(Br)c(C(F)(F)F)nn1CC(=O)N1CCc2nc3cc(-c4ccccc4)[nH]n3c(=O)c2C1 [PAT1inh-B01]
